Values after ≈ are worked out from the molar mass of the structure shown. Active and inactive are the calls of the source. No cut-off for these calls is given here.
Key:
Candida albicans [1] = assay: Antifungal activity against fluconazole/ITC-resistant Candida albicans ATCC 10231 measured after 48 hrs by CLSI M27-A3 protocol based method; assay type: functional; conditions: ATCC 10231, 48 h
Candida albicans [2] = assay: Antifungal activity against fluconazole/ITC-resistant Candida albicans ATCC 64124 measured after 48 hrs by CLSI M27-A3 protocol based method; assay type: functional; conditions: ATCC 64124, 48 h
Candida albicans [3] = assay: Antifungal activity against fluconazole/ITC-resistant Candida albicans ATCC 90819 measured after 48 hrs by CLSI M27-A3 protocol based method; assay type: functional; conditions: ATCC 90819, 48 h
Candida albicans [4] = assay: Antifungal activity against fluconazole/ITC-susceptible Candida albicans ATCC MYA-2310 measured after 48 hrs by CLSI M27-A3 protocol based method; assay type: functional; conditions: ATCC MYA-2310, 48 h
Candida albicans [5] = assay: Antifungal activity against fluconazole/ITC-resistant Candida albicans ATCC MYA-1237 measured after 48 hrs by CLSI M27-A3 protocol based method; assay type: functional; conditions: ATCC MYA-1237, 48 h
Candida parapsilosis = assay: Antifungal activity against Candida parapsilosis ATCC 22019 measured after 48 hrs by CLSI M27-A3 protocol based method; assay type: functional; conditions: Lodderomyces parapsilosis, ATCC 22019, 48 h
Aspergillus flavus = assay: Antifungal activity against Aspergillus flavus ATCC MYA-3631 measured after 48 hrs by CLSI M38-A2 protocol based method; assay type: functional; conditions: ATCC MYA-3631, 48 h
Aspergillus nidulans = assay: Antifungal activity against Aspergillus nidulans ATCC 38163 measured after 48 hrs by CLSI M38-A2 protocol based method; assay type: functional; conditions: ATCC 38163, 48 h
Aspergillus terreus = assay: Antifungal activity against Aspergillus terreus ATCC MYA-3633 measured after 48 hrs by CLSI M38-A2 protocol based method; assay type: functional; conditions: ATCC MYA-3633, 48 h
Candida albicans [6] = assay: Antibiofilm activity against fluconazole/ITC-resistant Candida albicans ATCC 10231 assessed as reduction in sessile growth after 24 hrs by XTT assay; assay type: functional; conditions: ATCC 10231, 24 h
Candida albicans [7] = assay: Antibiofilm activity against fluconazole/ITC-resistant Candida albicans ATCC 64124 assessed as reduction in sessile growth after 24 hrs by XTT assay; assay type: functional; conditions: ATCC 64124, 24 h
[8] = Hemolytic activity in mouse RBC at […] after 1 hr relative to control; assay type: ADME, cell-based, Erythrocyte; conditions: red blood cells (erythrocytes), read-out: Activity; note: tested at 0.48 µg/mL
[9] = Hemolytic activity in mouse RBC at […] ug/ml after 1 hr relative to control; assay type: ADME, cell-based, Erythrocyte; conditions: red blood cells (erythrocytes), read-out: Activity
[10] = Hemolytic activity in mouse RBC at 1.95 ug/ml after 1 hr relative to control; assay type: ADME, cell-based, Erythrocyte; conditions: red blood cells (erythrocytes), read-out: Activity
[11] = Hemolytic activity in mouse RBC at 3.9 ug/ml after 1 hr relative to control; assay type: ADME, cell-based, Erythrocyte; conditions: red blood cells (erythrocytes), read-out: Activity
[12] = Hemolytic activity in mouse RBC at 7.8 ug/ml after 1 hr relative to control; assay type: ADME, cell-based, Erythrocyte; conditions: red blood cells (erythrocytes), read-out: Activity
[13] = Hemolytic activity in mouse RBC at 31.3 ug/ml after 1 hr relative to control; assay type: ADME, cell-based, Erythrocyte; conditions: red blood cells (erythrocytes), read-out: Activity
Candida albicans [14] = assay: Fungicidal activity against fluconazole/ITC-resistant Candida albicans ATCC 10231 assessed as reduction in fungal growth at 0.5 to 2 times MIC incubated for 24 hrs followed by replating on PDA plates measured after 48 hrs Time-Kill assay; assay type: functional, organism-based

Structure (SMILES): C[C@@H](c1ncncc1F)[C@](O)(Cn1cncn1)c1ccc(F)cc1F [VORICONAZOLE]
- MIC (Candida albicans [1]): 0.975 µg/mL (≈ 2.79 µM)
- MIC (Candida albicans [2]): 0.24 µg/mL (≈ 0.687 µM)
- MIC (Candida albicans [3]): 0.12 µg/mL (≈ 0.344 µM)
- MIC (Candida albicans [4]): 0.12 µg/mL (≈ 0.344 µM)
- MIC (Candida albicans [5]): 0.24 µg/mL (≈ 0.687 µM)
- MIC (Candida parapsilosis): 1.95 µg/mL (≈ 5.58 µM)
- MIC (Aspergillus flavus): > 31.3 µg/mL
- MIC (Aspergillus nidulans): > 31.3 µg/mL
- MIC (Aspergillus terreus): > 31.3 µg/mL
- MIC50 (Candida albicans [6]): 16 µg/mL (≈ 45.8 µM)
- MIC90 (Candida albicans [6]): > 32 µg/mL
- MIC50 (Candida albicans [7]): 16 µg/mL (≈ 45.8 µM)
- MIC90 (Candida albicans [7]): > 32 µg/mL
- hemolysis at 1 h, […] [8]: 8.7%
- hemolysis at 1 h, 15.6 ug/ml ([9]; at 15.6 µg/mL): 2.8%
- hemolysis at 1 h, 0.975 ug/ml [9]: 10.3%
- hemolysis at 1 h, 1.95 ug/ml [10]: 6.3%
- hemolysis at 1 h, 3.9 ug/ml [11]: 7.5%
- hemolysis at 1 h, 7.8 ug/ml [12]: 11.4%
- hemolysis at 1 h, 31.3 ug/ml [13]: 83%
- Activity (Candida albicans [14]): Active

From ChEMBL document CHEMBL4411307, “N,N'-diaryl-bishydrazones in a biphenyl platform: Broad spectrum antifungal agents” (Eur J Med Chem, 2019)
